This is an account of results in ChEMBL document CHEMBL3879905, “Methods of using macrocyclic modulators of the ghrelin receptor” (2013).

SMILES strings stand for the structures. The source made the active and inactive calls. The calls are words filed in the database; no cut-off is given here.

For one assay, the species on record is Homo sapiens. In words: Selectivity for human GSHR1a over human motilin receptor.
In assay [1] the test system is Rattus norvegicus. Put plainly: Induction of gastric emptying of high caloric meal in Wistar rat gastroparesis model at 0.08 to […] mg/kg, iv after 60 mins. The assay is classed as functional, organism-based. The following applies: Stomach.
Assay [2] concerns Rattus norvegicus. Put plainly: Induction of gastric emptying of solid meal in Wistar rat gastroparesis model at 100 ug/kg, iv administered immediately post phenol red containing methylcellulose meal intake measured after 15 mins by colorimetric method relative to vehicle-treated control. It counts as functional, Stomach.
Assay [3] relates to Rattus norvegicus. In words: Gastrokinetic activity in Wistar rat gastroparesis model at 100 ug/kg, iv administered immediately post phenol red containing methylcellulose meal intake measured after 15 mins by colorimetric method relative to vehicle-treated control. It counts as functional, organism-based.
The test system of assay [4] is Rattus norvegicus. Put plainly: Induction of gastric emptying of solid meal in Wistar rat gastroparesis model at 30 ug/kg, iv administered immediately post methylcellulose meal containing phenol red intake measured after 15 mins by colorimetric method relative to vehicle-treated control. The following applies: Stomach. The assay is classed as functional, organism-based.

Assay [5] deals with Growth hormone secretagogue receptor type 1 (Homo sapiens, UniProt Q92847). Put plainly: Displacement of [125I]-Ghrelin from human GSHR1a transfected in HEK293 cell membranes after 30 mins by microplate scintillation and luminescence counting method. (In general: Displacement assays read how much labelled ligand stays bound in the presence of the test substance.)
Assay [6] has as its system Rattus norvegicus. In words: Induction of gastric emptying of solid meal in iv dosed Wistar rat gastroparesis model administered immediately post methylcellulose meal containing phenol red intake measured after 15 mins by colorimetric method. The assay is classed as functional, organism-based. The following applies: Stomach.
Assay [7] deals with Rattus norvegicus. Put plainly: Reversal of morphine-induced intestinal transit delaying in iv dosed Sprague-Dawley rat postoperative ileus model at 100 ug/kg, iv administered prior to 99mTC labeled methylcellulose meal intake measured after 15 mins by gamma counting method. It counts as functional, organism-based.
Assay [8] has as its system Rattus norvegicus. Put plainly: Induction of gastric emptying of solid meal in Sprague-Dawley rat postoperative ileus model at 100 to 300 ug/kg, iv administered prior to 99mTC labeled methylcellulose meal intake measured after 15 mins by gamma counting method relative to vehicle-treated control. The assay is classed as functional, organism-based. Conditions: Stomach.

Growth hormone secretagogue receptor type 1, sequence (Q92847 whole entry): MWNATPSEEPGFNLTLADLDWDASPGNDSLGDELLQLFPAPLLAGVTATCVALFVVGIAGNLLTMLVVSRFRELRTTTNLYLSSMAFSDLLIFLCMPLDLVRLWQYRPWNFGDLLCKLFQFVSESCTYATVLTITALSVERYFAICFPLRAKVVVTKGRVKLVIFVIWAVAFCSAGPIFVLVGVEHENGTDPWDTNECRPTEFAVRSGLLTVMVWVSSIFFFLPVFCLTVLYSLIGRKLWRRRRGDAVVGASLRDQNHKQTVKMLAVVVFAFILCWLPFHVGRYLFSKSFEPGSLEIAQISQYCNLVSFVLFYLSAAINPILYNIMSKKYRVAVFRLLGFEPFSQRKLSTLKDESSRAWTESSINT

As for `CC[C@H](C)[C@@H]1NCCOc2ccc(F)cc2CCCNC(=O)[C@H](Cc2cccc(Cl)c2)NC(=O)C2(CCCC2)NC1=O`, the Selectivity ratio in the assay listed under Homo sapiens worked out at 74. Turning to `CCC[C@@H]1NCCOc2ccccc2CCCNC(=O)[C@@H](Cc2c[nH]c3ccccc23)NC(=O)CN(C)C1=O`, in the assay listed under Homo sapiens, the Selectivity ratio is 71.

`CC[C@H](C)[C@@H]1NCCOc2ccccc2/C=C\CNC(=O)[C@H](Cc2ccc(Cl)cc2)NC(=O)C2(CCOC2)NC1=O` (stereo not given in full): the Selectivity ratio in the assay filed under Homo sapiens was more than 159. With `CC[C@H](C)[C@@H]1NCCOc2ccccc2CCCNC(=O)[C@@H](Cc2cccs2)NC(=O)[C@@H](C)N(C)C1=O`, the Selectivity ratio in the assay filed under Homo sapiens is more than 1000. Turning to `CC[C@H](C)[C@@H]1NC[C@H](C)Oc2ccccc2CCCNC(=O)[C@H](Cc2cccc(Cl)c2)NC(=O)C2(CCCC2)NC1=O`, the Selectivity ratio in the assay filed under Homo sapiens was found to be 300. On the same count and under the same terms, next, `CC(C)[C@@H]1NCCOc2ccccc2/C=C\CNC(=O)[C@H](Cc2ccccc2)NC(=O)[C@@H](C)N(C)C1=O`: more than 1700; `CC1COc2ccccc2CCCNC(=O)[C@@H](Cc2ccc(F)cc2)NC(=O)[C@@H](C)N(C)C(=O)[C@H](C2CC2)N1` (stereo not given in full): 1700. On to `CCC[C@@H]1NCCOc2ccccc2CCCNC(=O)[C@@H](Cc2ccccc2)NC(=O)CN(C)C1=O`, for which the Selectivity ratio in the assay filed under Homo sapiens stood at 304. Still for that read-out and setting: in the case of `CC[C@H](C)[C@@H]1NCCOc2ccccc2CCCNC(=O)[C@@H](Cc2ccc3ccccc3c2)NC(=O)[C@@H](C)N(C)C1=O` it was 4900; in that of `C[C@@H]1C(=O)N[C@H](Cc2ccc(F)cc2)C(=O)NCCCc2ncccc2OCCN[C@@H](C2CC2)C(=O)N1C`, 714; in that of `CC1(C)NC(=O)C2(CCCC2)NCCOc2ccccc2/C=C\CNC(=O)[C@H](Cc2cccc(Cl)c2)NC1=O`, 346. Still for that read-out and setting: in the case of `CC[C@H](C)[C@@H]1NCCOc2ccccc2CCCNC(=O)[C@@H](Cc2ccc(F)cc2)NC(=O)[C@@H](C)N(C)C1=O` it was more than 7700. Same read-out and setting: next, `CC[C@H](C)[C@@H]1NCCOc2ccccc2CCCNC(=O)[C@@H](Cc2ccccc2)NC(=O)[C@@H](C)N(CC)C1=O`: 3700. In the case of `C[C@H]1C(=O)N[C@@H](Cc2ccc(F)cc2)C(=O)NC[C@H]2C[C@@H]2c2ccccc2OCCN[C@H](C2CC2)C(=O)N1C`, the Selectivity ratio in the assay filed under Homo sapiens was found to be 450. Turning to `CCC[C@@H]1NCCOc2ccccc2CCCNC(=O)[C@@H](Cc2ccc(O)cc2)NC(=O)CN(C)C1=O`, the Selectivity ratio in the assay listed under Homo sapiens was more than 100. On to `CC(C)C[C@@H]1NCCOc2ccccc2/C=C\CNC(=O)[C@H](Cc2cccc(Cl)c2)NC(=O)C2(CCCC2)NC1=O`, for which the result in the assay on Rattus norvegicus [1] was Active. In addition, the Selectivity ratio in the assay listed under Homo sapiens was 1080. In the case of `C[C@H]1NC(=O)C2(CCCC2)NCCOc2ccccc2/C=C\CNC(=O)[C@H](Cc2cccc(Cl)c2)NC1=O`, the Selectivity ratio in the assay listed under Homo sapiens was determined as 450. Same read-out and setting: next, `CCC[C@@H]1NCCOc2ccccc2/C=C\CNC(=O)[C@@H](Cc2ccccc2)NC(=O)[C@@H](C)N(C)C1=O`: 3400; `CC[C@H](C)[C@@H]1NCCOc2ccccc2CCCNC(=O)[C@@H](Cc2ccccc2)NC(=O)[C@@H](C)N(C)C1=O`: more than 100.

As for `CC(C)C1NCCOc2ccccc2/C=C\CNC(=O)C(Cc2ccccc2)NC(=O)C(C)N(C)C1=O` (stereo not given), the Selectivity ratio in the assay listed under Homo sapiens is more than 1700. Still for that read-out and setting: next, `CCC(C)[C@H]1NCCOc2ccccc2[C@H]2C[C@@H]2CNC(=O)[C@H](Cc2cccc(Cl)c2)NC(=O)C2(CCCC2)NC1=O` (stereo not given in full): 400. As to `C[C@@H]1CN[C@@H](C2CC2)C(=O)N(C)[C@H](C)C(=O)N[C@H](Cc2ccc(F)cc2)C(=O)NCCCc2ccc(F)cc2O1`, the result in the assay with Rattus norvegicus [1] was Active. With `CC[C@H](C)[C@@H]1NCCOc2ccccc2CCCNC(=O)[C@@H](Cc2ccc(Cl)cc2)NC(=O)[C@@H](C)N(C)C1=O`, the Activity in the assay on Rattus norvegicus [2] is listed as 30 - 39%. The outcome in the assay on Rattus norvegicus [1], in the assay with Rattus norvegicus [3] and in the assay with Rattus norvegicus [4] was Active. Further, in the assay listed under Homo sapiens, the Selectivity ratio came to 28000. Consider `C[C@@H]1C(=O)N[C@H](Cc2ccc(Cl)cc2)C(=O)NCCCc2ccccc2OCCN[C@@H](C2CC2)C(=O)N1C`, for which the outcome in the assay with Rattus norvegicus [1] was Active. Regarding `C[C@@H]1C(=O)N[C@H](Cc2ccc(Cl)cc2Cl)C(=O)NCCCc2ccccc2OCCN[C@@H](C2CC2)C(=O)N1C`, the Selectivity ratio in the assay listed under Homo sapiens was more than 5500. Same read-out and setting: next, `CC[C@H](C)[C@@H]1NCCOc2ccccc2CCCNC(=O)[C@@H](Cc2cccc3ccccc23)NC(=O)[C@@H](C)N(C)C1=O`: 13000.

As to `CC(C)C[C@@H]1NCCOc2ccccc2/C=C\CNC(=O)[C@H](Cc2ccccc2Cl)NC(=O)C2(CCCC2)NC1=O`, the Selectivity ratio in the assay listed under Homo sapiens was 1040. `CC[C@H](C)[C@@H]1NCCCCCCCCNC(=O)[C@@H](Cc2ccccc2)NC(=O)[C@@H](C)N(C)C1=O`: the Selectivity ratio in the assay listed under Homo sapiens came out at 28. On the same count and under the same terms, next, `C[C@@H]1C(=O)N[C@H](Cc2ccccc2)C(=O)NCCCc2ccccc2OCCN[C@@H](C2CC2)C(=O)N1C`: 2500; `C[C@@H]1C(=O)N[C@H](Cc2ccccc2)C(=O)NCCCc2ccccc2OCCN[C@@H](C(C)(C)C)C(=O)N1C`: 4300. For the compound `C[C@@H]1C(=O)N[C@H](Cc2ccc(F)cc2)C(=O)NCCCc2ccc(F)cc2OCCN[C@@H](C2CC2)C(=O)N1C`, the result with Rattus norvegicus [1] was Active. Also, the Selectivity ratio in the assay filed under Homo sapiens was found to be 2500.

In the case of `CC[C@H](C)[C@@H]1NCCOc2ccc(C(=O)O)cc2CCCNC(=O)[C@@H](Cc2ccccc2)NC(=O)[C@@H](C)N(C)C1=O`, the Selectivity ratio in the assay filed under Homo sapiens is 100. Still for that read-out and setting: next, `CC(C)C[C@@H]1NCCOc2ccccc2/C=C\CNC(=O)[C@H](Cc2ccccc2)NC(=O)C2(CCCC2)NC1=O`: 200.

For the compound `C[C@@H]1CN[C@@H](C2CC2)C(=O)N(C)[C@H](C)C(=O)N[C@H](Cc2ccc(Cl)cc2)C(=O)NCCCc2ccccc2O1`, in the assay on Rattus norvegicus [1], the result was Active.

`CC[C@H](C)[C@@H]1NCCOc2ccccc2CCCNC(=O)[C@@H](Cc2ccccc2Cl)NC(=O)[C@@H](C)N(C)C1=O`: in the assay filed under Homo sapiens, the Selectivity ratio worked out at 30000. Still for that read-out and setting: next, `CC[C@H](C)[C@@H]1NCCOc2ccccc2CCCNC(=O)[C@@H](Cc2ccc(OC)cc2)NC(=O)[C@@H](C)N(C)C1=O`: more than 7100; `C[C@@H]1C(=O)N[C@H](Cc2ccc(O)c(C(C)(C)C)c2)C(=O)NCCCc2ccccc2OCCN[C@@H](C2CC2)C(=O)N1C`: 21; `CCC[C@@H]1NCCOc2ccccc2CCCNC(=O)[C@@H](Cc2ccccc2)NC(=O)[C@H](C)N(C)C1=O`: 3010.

As for `CC[C@H](C)[C@@H]1NCCCCCCCCNC(=O)[C@H](Cc2cccc(Cl)c2)NC(=O)C2(CCCC2)NC1=O`, the Selectivity ratio in the assay listed under Homo sapiens was found to be 35. The same measure, in the same setting: in the case of `CCCC[C@@H]1NCCOc2ccccc2CCCNC(=O)[C@@H](Cc2ccccc2)NC(=O)CN(C)C1=O` it was 142. As for `C[C@@H]1CN[C@@H](C2CC2)C(=O)N(C)[C@H](C)C(=O)N[C@H](Cc2ccc(Cl)cc2)C(=O)NCCCc2ccc(F)cc2O1`, the result in the assay with Rattus norvegicus [1] was Active. `O=C1NC/C=C/c2ccccc2OCCNC2(CCCC2)C(=O)NC2(CCCC2)C(=O)N[C@H]1Cc1ccccc1`: the Selectivity ratio in the assay filed under Homo sapiens is 222.

As to `C[C@@H]1C(=O)N[C@H](Cc2ccc(F)cc2)C(=O)NCCCc2cc(NS(C)(=O)=O)ccc2OCCN[C@@H](C2CC2)C(=O)N1C`, the Selectivity ratio in the assay listed under Homo sapiens came to 250.

Take `CC[C@H](C)[C@@H]1NCCOc2ccccc2/C=C\CNC(=O)[C@@H](Cc2ccccc2)NC(=O)[C@@H](C)N(C)C1=O`: in the assay filed under Homo sapiens, the Selectivity ratio is more than 3300. Same read-out and setting: in the case of `CC[C@H](C)[C@@H]1NCCCc2ccccc2/C=C\CNC(=O)[C@@H](Cc2ccccc2)NC(=O)[C@@H](C)N(C)C1=O` it was more than 800; in that of `CC(C)[C@@H]1NCCOc2ccccc2CCCNC(=O)[C@H](Cc2ccccc2)NC(=O)C2(CCCC2)NC1=O`, 117; in that of `CC[C@H](C)[C@@H]1NCCOc2ccccc2CCCNC(=O)[C@@H](Cc2cccc(Cl)c2)NC(=O)[C@@H](C)N(C)C1=O`, 3040. For `C[C@@H]1C(=O)N[C@H](Cc2ccccc2)C(=O)NCCCc2ccc3c(c2)OC(CC3)CN[C@@H](C2CC2)C(=O)N1C` (stereo not given in full), in the assay with Rattus norvegicus [1], the result was Active. Consider `C[C@@H]1CN[C@@H](C2CC2)C(=O)N(C)[C@H](C)C(=O)N[C@H](Cc2ccc(F)cc2)C(=O)NCCCc2ccccc2O1`, for which the %max in [5] was determined as 96%. Besides, the outcome in the assay on Rattus norvegicus [1], in the assay on Rattus norvegicus [8] and in the assay on Rattus norvegicus [3] was Active. Further, the Activity result in the assay with Rattus norvegicus [6] and with Rattus norvegicus [7] was “Dose-dependent effect” throughout.
